Our source for the IC50 values is patent US20090209602A1, “CHEMICAL COMPOUNDS” (priority 2006, published 2009).

What is called IC50 is the concentration that gives 50% inhibition. A lower IC50 goes with greater potency.

This test concerns the target T1, human DGAT1 (Homo sapiens, UniProt O75907).
T1 construct: made in house; host or cells: Sf9 insect cells (recombinant baculovirus), membrane fraction
T1 sequence (O75907 1-488): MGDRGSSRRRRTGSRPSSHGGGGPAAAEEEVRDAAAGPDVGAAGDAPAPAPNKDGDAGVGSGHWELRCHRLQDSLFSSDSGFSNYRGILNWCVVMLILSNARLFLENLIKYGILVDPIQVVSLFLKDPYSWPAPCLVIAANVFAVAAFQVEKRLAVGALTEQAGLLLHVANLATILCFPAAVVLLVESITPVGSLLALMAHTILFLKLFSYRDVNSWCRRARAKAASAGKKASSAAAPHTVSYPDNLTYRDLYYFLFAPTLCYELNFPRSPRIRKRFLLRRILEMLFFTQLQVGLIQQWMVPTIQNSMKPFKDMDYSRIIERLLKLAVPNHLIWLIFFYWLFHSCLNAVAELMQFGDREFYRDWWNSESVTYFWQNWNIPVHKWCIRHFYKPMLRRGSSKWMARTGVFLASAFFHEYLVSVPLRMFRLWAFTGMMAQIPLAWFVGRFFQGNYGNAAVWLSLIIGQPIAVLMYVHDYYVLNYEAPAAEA
Kind of test: Human Enzyme Assay (DGAT1 inhibition). In kind it is biochemical. Conditions: human DGAT1 expressed in insect cell (sf9) membranes; 14C oleoyl coenzyme A, 30 minutes, room temperature. The method, then:
The in vitro assay to identify DGAT1 inhibitors uses human DGAT1 expressed in insect cell membranes as the enzyme source (Proc. Natl. Acad. Sci. 1998, 95, 13018-13023). Briefly, sf9 cells were infected with recombinant baculovirus containing human DGAT1 coding sequences and harvested after 48 h. Cells were lysed by sonication and membranes isolated by centrifuging at 28000 rpm for 1 h at 4° C. on a 41% sucrose gradient. The membrane fraction at the interphase was collected, washed, and stored in liquid nitrogen.
DGAT1 activity was assayed by a modification of the method described by Coleman (Methods in Enzymology 1992, 209, 98-102). Compound at 1-10 μM was incubated with 0.4 μg membrane protein, 5 mM MgCl2, and 100 μM 1,2 dioleoyl-sn-glycerol in a total assay volume of 200 μl in plastic tubes. The reaction was started by adding ^14C oleoyl coenzyme A (30 μM final concentration) and incubated at room temperature for 30 minutes. The reaction was stopped by adding 1.5 mL 2-propanol:heptane:water (80:20:2). Radioactive triolein product was separated into the organic phase by adding 1 mL heptane and 0.5 mL 0.1 M carbonate buffer pH 9.5. DGAT1 activity was quantified by counting aliquots of the upper heptane layer by liquid scintillography.

As to `O=C(O)CC1CCC(c2ccc(NC(=O)c3cnc(Nc4ccccc4)o3)cc2)CC1` (stereo not shown) [Example 1, [4-(4-{[(2-Anilino-1,3-oxazol-5-yl)carbonyl]amino}phenyl)cyclohexyl]acetic acid], half-maximal inhibition (IC50) required 100 nM.
